This assay has as its system CEM cells HIV-1 protection, formazan growth assay. Briefly: NCI AIDS Antiviral Assay. Conditions: for IC50: measured here: growth of uninfected CEM cells. The procedure, abridged:
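Five concentrations of each compound were applied to infected and uninfected human CEM cells. Protection from HIV-1 was judged from growth measured with a soluble formazan assay.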

The source made the active and inactive calls.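 How the source made its calls: active means compounds giving half or more protection of infected cells from virus-caused growth loss, again on retest; inactive means the rest.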

In general, EC50 refers to the concentration needed to bring the measured effect to its halfway point. What is called IC50 is the concentration that inhibits the measured activity by half.

With `Cc1cn([C@H]2C[C@@H]3[C@@H](COC(C(Cl)Cl)N3O)O2)c(=O)[nH]c1=O` (some centres undefined), the EC50 is > 200 µM and the IC50 is > 200 µM.

With `C[C@]12CC[C@H](OC(=O)/C=C\c3ccccc3N(CCCl)CCCl)CC1CC[C@@H]1C2CC[C@]2(C)NC(=O)CCC12` (some centres undefined), the outcome was inactive.

With `OC1CCN(Cc2ccccc2)C[C@@H]1CNC12CC3CC(CC(C3)C1)C2` (some centres undefined), the EC50 was > 100 µM and the IC50 turned out to be 93.3 µM.

Regarding `CCCCCc1cc(O)cc2c1Oc1cc(O)cc(C(=O)CCCC)c1C(=O)O2`, the EC50 is > 56.2 µM and the IC50 was determined as 28.2 µM.

`O=S(=O)(Nc1nnc2ccc3ccccc3n12)c1ccc(F)cc1S`: the EC50 is > 200 µM and the IC50 was 110 µM.

Consider `CC1=NN(C(=O)CC(=O)Nc2cccc(Cl)c2)C(=O)C1N=Nc1ccc(C(=O)O)cc1` (centres undefined), for which the EC50 is > 200 µM and the IC50 was 52.5 µM.

Take `O=C(Nc1nc2ccc([N+](=O)[O-])cc2s1)C(=O)C(C(=O)c1ccncc1)C1OC(=O)c2ccccc21` (centres undefined): the EC50 was > 186 µM and the IC50 came out at 102 µM.

With `O=C1NC(=O)C2(CCN(Cc3ccccc3)CC2)N1c1ccccc1`, the EC50 was > 200 µM and the IC50 is > 200 µM.

Consider `CC(C)OC(=O)c1ccc(NCc2cc(O)ccc2O)cc1`, for which the EC50 was > 200 µM and the IC50 was found to be 2.19 µM.

Regarding `CCn1nc(-c2ccccc2)c2c1N(C)c1ccccc1-n1c(-c3ccccc3)nnc1-2`, the EC50 is > 200 µM and the IC50 was 26.3 µM.

In the case of `COc1ccc(/C=c2/sc3n(c2=O)NC2(CCCCC2)NN=3)cc1`, the outcome was inactive.

Regarding `O=C(O)CN(c1cccc(Cl)c1)S(=O)(=O)c1ccccc1`, the result was inactive.

For `CCCCC(C)CCCC1=C(O)/C(=C/C(=O)O)OC1=O` (centres undefined), the EC50 was 174 µM and the IC50 was found to be 447 µM.

For `CN1CCC2(CC1)N=C1CCN(C)CC1S2` (centres undefined), the EC50 was > 457 µM and the IC50 came to 87.1 µM.

On to `CCOC(=O)Nc1ccc2nc(N3CCCCC3)sc2c1`, for which the EC50 was > 85.1 µM and the IC50 is 6.31 µM.

On to `CN1C2C=CC1c1c(C3=NC(C)(C)CO3)cccc12` (centres undefined), for which the EC50 was > 200 µM and the IC50 is > 200 µM.

For the compound `O=C(CCCCCCCCC(=O)NCC1(c2ccccc2)CCNCC1)NCC1(c2ccccc2)CCNCC1`, the EC50 is > 100 µM and the IC50 was > 100 µM.

`NC(N)=NS(=O)(=O)c1ccc(NNc2c3ccccc3nc3c(C(=O)Nc4ccc(S(=O)(=O)Nc5ncccn5)cc4)cccc23)cc1`: the EC50 was > 100 µM and the IC50 turned out to be 22.9 µM.

Turning to `O=C(/C=C\c1ccc(Cl)cc1Cl)c1cccs1`, the EC50 was > 200 µM and the IC50 came to 32.4 µM.

With `CCOC(=O)c1sc2c(c1OC(=O)c1cc(OC)c(OC)c(OC)c1)c(=O)n(-c1ccccc1)c(=S)n2-c1ccccc1`, the EC50 is > 200 µM and the IC50 came out at 4.47 µM.

Regarding `CCCCCCCCCCCC1CC(=O)NCCCN(C)CCCCN(C)CCCN1C` (centres undefined), the EC50 was > 200 µM and the IC50 was 1.12 µM.

In the case of `NC(=O)c1c2n(c3ncnc(N)c13)C1OC(CO)C(O)C1S2` (centres undefined), the EC50 is > 389 µM and the IC50 was > 389 µM.

In the case of `NC(=O)c1cccc(C2OC(COP(=O)(O)O)C(O)C2O)c1` (centres undefined), the EC50 was > 661 µM and the IC50 came out at 3.47 µM.

With `COc1ccccc1NC(=S)N/N=C(/c1ccccc1)c1ccccn1`, the EC50 was > 0.2 µM and the IC50 amounted to 0.0813 µM.

On to `CC1(C)S(=O)(=O)OCCOS1(=O)=O`, for which the EC50 was > 200 µM and the 50% inhibitory concentration (IC50) worked out at 110 µM.

In the case of `N#C/C(=C/c1cccc(Oc2ccccc2)c1)c1ccccc1`, the EC50 is > 6.76 µM and the IC50 was > 6.76 µM.

Turning to `Cc1cc2occ(-c3ccc(Cl)cc3)c2c(=O)o1`, the EC50 was > 20 µM and the IC50 was > 20 µM.

With `COC(=O)CCC(C)C1CCC2[C@@H]3CC[C@@H]4CC(=O)CC[C@]4(C)C3CC[C@]12C` (some centres undefined), the EC50 was > 5.13 µM and the IC50 was > 5.13 µM.

With `CC1=C/N\C(C#N)=C(C#N)/N=C/C(C)=C\N\C(C#N)=C(C#N)/N=C\1`, the EC50 was > 200 µM and the IC50 was > 200 µM.

For the compound `Nc1ccc(C2=N/C(=C\c3cccc(N)c3)C(=O)O2)cc1`, the result was inactive.

As for `CN(C)c1ccc(/C=C2\Cc3ccccc3C2=O)cc1Br`, the EC50 is > 11 µM and the IC50 was > 11 µM.

As for `O=C(N[C@H]1CCC[C@H]1C(=O)Nc1ccc(C(F)(F)F)cc1)OCc1ccccc1`, the EC50 was > 200 µM and the half-maximal inhibitory concentration (IC50) is > 200 µM.

For `c1ccc2c3c(ccc2c1)CN1CCCCC1C3` (centres undefined), the EC50 was > 676 µM and the IC50 came to 49 µM.

As to `CC(=O)NNc1nc(C)c(C(=O)/C=C/c2ccc(/C=C/C(=O)c3sc(NNC(C)=O)nc3C)cc2)s1`, the EC50 is > 49 µM and the IC50 is > 49 µM.

Regarding `O=C(NC/C(Cl)=C/Cl)Nc1c2ccccc2nc2ccccc12`, the EC50 is > 200 µM and the IC50 worked out at 21.9 µM.

As to `O=c1sccc2ccccc12`, the EC50 was > 417 µM and the IC50 was > 417 µM.

As to `C=C1c2ccccc2CCN1CC(=O)CC1C=CCS1(=O)=O` (centres undefined), the EC50 was > 407 µM and the IC50 was > 407 µM.

On to `N#CC1Nc2ccccc2[C@@H](O)C1O` (some centres undefined), for which the EC50 was > 1320 µM and the IC50 is 240 µM.

`COc1nc2c(c(=O)[nH]1)N=C(c1ccc(Cl)cc1)CC(c1ccccc1)N2` (centres undefined): the EC50 was > 200 µM and the IC50 came to 55 µM.

As for `C1CCN(c2nc(=[N+]3CCCCC3)ss2)CC1`, the result was inactive.

Take `COc1cc(O)c2c(=O)c(OC)c(-c3ccc4c(c3)OCO4)oc2c1`: the EC50 was > 200 µM and the IC50 was > 200 µM.

Take `COC(=O)C1=C(N2CCCC2)C2c3ccccc3SC12C(=O)OC` (centres undefined): the EC50 is 5.75 µM and the IC50 came out at 55 µM.

In the case of `CCOC(=O)/C(C#N)=C/Nc1c(C)n(C)n(-c2ccccc2)c1=O`, the EC50 is > 200 µM and the IC50 is > 200 µM.

Consider `Cn1cc2c(=O)n(OS(=O)(=O)c3ccccc3)c(=O)[nH]c2n1`, for which the EC50 is > 200 µM and the IC50 is > 200 µM.

On to `O=C(Nc1ccc(/C=C/c2ccc(NC(=O)c3ccccc3O)cc2S(=O)(=O)O)c(S(=O)(=O)O)c1)c1ccccc1O`, for which the EC50 was 115 µM and the IC50 was > 200 µM.

With `CC(C)OP(=O)(OC(C)C)C1=NN(c2ccc([N+](=O)[O-])cc2)C(P(=O)(OC(C)C)OC(C)C)=NN1c1ccc([N+](=O)[O-])cc1`, the EC50 was > 2.19 µM and the IC50 was > 2.19 µM.

Take `O=C1c2cc3c(cc2CC12Cc1cc4c(cc1C2=O)CCCC4)CCCC3`: the EC50 is > 200 µM and the IC50 was > 200 µM.

In the case of `O=c1cc2ccccc2nn1Cc1cccc(Cl)c1`, the EC50 was > 115 µM and the IC50 amounted to 102 µM.

As for `Cc1cccc(/C=C2\CCCCCC2=O)c1`, the EC50 is > 200 µM and the IC50 was 53.7 µM.

For the compound `COC(=O)/C=C\c1ccc2c(c1)CC1(C2)Cc2ccc(/C=C/C(=O)OC)cc2C1` (centres undefined), the EC50 was > 200 µM and the IC50 is > 200 µM.

As to `O=C1c2cccc(O)c2Cc2c(O)cc(CO)cc21`, the EC50 is > 100 µM and the IC50 was 52.5 µM.

As for `Nc1nncc2n[nH]nc12`, the EC50 is > 200 µM and the IC50 was 174 µM.

The values are drawn from PubChem BioAssay AID179 (DTP/NCI, 2004).
